For 88 compounds, AC40 results are on record in PubChem BioAssay AID652053 (Broad Institute, 2013).

In the assay the test system is Huh7 psiCHECK-miR122 Renilla luciferase reporter, 48 h. Nature of the assay: miR-122 inhibitors in Huh7 reporter cells, dose response, cell-based, Huh7 psiCHECK-miR122, Renilla luciferase, cherry-pick (AID 652053).
For the compound `Cc1ccc(S(=O)(=O)Nc2ccc(C(=O)Nc3cc(C)on3)cc2)cc1`, the AC40 is 1.44 µM.
With `Cc1ccc(S(=O)(=O)N(C)C[C@H]2Oc3ccc(NC(=O)Nc4ccc(C(F)(F)F)cc4)cc3C(=O)N([C@H](C)CO)C[C@H]2C)cc1` the figure was 5.41 µM; with `O=C1NC(=O)C(CCc2ccncc2)(Cc2cccc(Cl)c2Cl)C(=O)N1c1ccc(Br)cc1` (stereo not drawn), 2.98 µM; with `Cc1c(C(=O)N2CCCCC2)c(S(=O)(=O)Nc2cccc(Br)c2)c(C)n1C`, 1.44 µM.
With `Cc1ccc(OP(=O)(Nc2cccc(C)c2)Oc2ccc(C)cc2)cc1` the figure was 6.66 µM; with `COc1ccc(S(=O)(=O)N(C)C[C@H]2Oc3ccc(NC(=O)Nc4ccc(C(F)(F)F)cc4)cc3C(=O)N([C@@H](C)CO)C[C@H]2C)cc1`, 8.41 µM; with `C[C@H](CO)N1C[C@H](C)[C@@H](CN(C)Cc2ccc(C(F)(F)F)cc2)Oc2ccc(N(C)C)cc2C1=O`, 0.891 µM.
The value for `C[C@H](CO)N1C[C@H](C)[C@@H](CN(C)Cc2ccc(C(=O)Nc3ccccc3N)cc2)Oc2c(NC(=O)Nc3ccccc3)cccc2C1=O` was 23.5 µM.
With `CC(=O)N1c2c(cc(Br)cc2S(=O)(=O)NCc2ccccc2)CC1C` (stereo not drawn), the AC40 was 5.96 µM.
With `O=C(Nc1ccc2c(c1)CCC2)c1cc(S(=O)(=O)Nc2ccc(F)cc2)c(Cl)cc1Cl` the figure was 4.1 µM; with `O=S(=O)(Nc1ccc(C(O)(C(F)(F)F)C(F)(F)F)cc1)c1cccc2ccccc12`, 1.45 µM.
With `CCOc1ccc(Br)cc1S(=O)(=O)Nc1cccc(S(=O)(=O)N(C)c2ccccc2)c1` the figure was 3.18 µM; with `COc1ccc(NC(=O)C2CCC2)cc1S(=O)(=O)Nc1cc(C)ccc1Br`, 0.985 µM; with `CC(=O)Nc1ccc(NS(=O)(=O)c2ccc3ccccc3c2)cc1`, 14.3 µM.
Turning to `COc1ccc(NS(=O)(=O)c2cc(NC(=O)COc3ccc(OC)cc3)ccc2N2CCOCC2)cc1`, the AC40 is 2.62 µM.
With `COc1ccc(S(=O)(=O)N(C)C[C@H]2Oc3ccc(NC(=O)Cc4ccccc4)cc3C(=O)N([C@H](C)CO)C[C@H]2C)cc1` the figure was 2.75 µM; with `COc1ccccc1CNS(=O)(=O)c1cc(-c2cc(C)no2)ccc1C(C)C`, 4.78 µM.
With `CCCNC(=O)C[C@@H]1CC[C@H]2[C@H](COc3ccc(NC(=O)c4ccc5c(c4)OCO5)cc3C(=O)N2C)O1` the figure was 2.21 µM; with `Nc1ncc(Br)cc1S(=O)(=O)NC1CCCCC1`, 2.19 µM.
The value for `Cc1cc(C)c(S(=O)(=O)NC(C)C)c(C)c1-n1cnnn1` was 1.3 µM; that for `COc1ccccc1NS(=O)(=O)c1cc(NC(=S)NCCN2CCOCC2)ccc1N1CCOCC1` was 1.71 µM.
In the case of `O=C(OCCN=C1NS(=O)(=O)c2ccccc21)c1ccccc1`, the AC40 was 9.59 µM.
`O=C(C1CCCCC1)N1[C@H](CO)[C@@H]2c3ccccc3N(S(=O)(=O)c3ccccc3)C[C@@H]21`: the AC40 is 3.09 µM.
Take `O=C(c1ccc(NS(=O)(=O)c2ccc3c(c2)OCCO3)cc1)N1CCCCC1`: the AC40 was 14.8 µM.
The value for `Cc1cc(C)cc(C(O)c2ncc(-c3ccccc3F)[nH]2)c1` (stereo not drawn) was 2.5 µM; that for `COc1ccc(NC(=O)c2cccc(S(=O)(=O)Nc3ccc(Br)cc3)c2)cn1` was 2.11 µM.
The value for `C[C@@H]1CN([C@@H](C)CO)C(=O)Cc2cc(N(C)C)ccc2O[C@@H]1CN(C)Cc1ccc(C(=O)Nc2ccccc2N)cc1` was 10 µM; that for `CC(C)(C)C(=O)Nc1cc(S(=O)(=O)Nc2ccc(Cl)cc2)ccc1Cl` was 2.74 µM.
The value for `Cc1ccc(NS(=O)(=O)c2cccc(C(=O)N(C)Cc3cccs3)c2)cc1` was 3.04 µM; that for `C[C@@H]1CN([C@H](C)CO)C(=O)Cc2cc(N(C)C)ccc2O[C@H]1CN(C)Cc1ccc(C(=O)Nc2ccccc2N)cc1` was 10.3 µM; that for `CC(C)(C)C(=O)Nc1cc(S(=O)(=O)Nc2ccc(Cl)cc2)ccc1O` was 13.8 µM.
`Cc1ccccc1C(=O)Oc1ccc(Br)cc1C(=S)N1CCCC1`: the AC40 was 13.3 µM.
The value for `COc1ccc(C)cc1S(=O)(=O)NCCC1=CCCCC1` was 0.465 µM.
With `CC1CCCC(NS(=O)(=O)c2ccc3c(c2)OCCO3)C1C` (stereo not drawn) the figure was 3.1 µM.
The value for `Cc1cccc(NS(=O)(=O)c2cccc(C(=O)N3CCCCCCC3)c2)c1` was 1.8 µM; that for `COc1ccccc1N(CC(=O)N1CCCCC1C)S(=O)(=O)c1ccc(Cl)cc1` (stereo not drawn) was 2.31 µM.
`COc1ccc(S(=O)(=O)Nc2ccc(S(=O)(=O)Nc3ccc(F)cc3)cc2)cc1C`: the AC40 was 14.5 µM.
On to `COc1cc(C)c(C(C)C)cc1S(=O)(=O)NC1CC(C)(C)NC(C)(C)C1`, for which the AC40 was 0.59 µM.
Consider `O=C(Nc1ccc(F)cc1)N1C[C@H]2[C@@H](c3ccccc31)[C@@H](CO)N2C(=O)c1ccc(F)cc1`, for which the AC40 is 10.9 µM.
The value for `O=c1c2ccccc2nnn1CSc1nnc(C2COc3ccccc3O2)n1-c1ccccc1` (stereo not drawn) was 19.2 µM; that for `CCCCCCNS(=O)(=O)c1ccc(OC)c(OC)c1` was 4.67 µM.
The value for `COc1ccc(S(=O)(=O)Nc2cc(C)c(O)c(S(=O)(=O)c3ccccc3)c2)cc1` was 29.6 µM; that for `COc1ccc(C(=O)Nc2cccc(S(=O)(=O)NCc3ccco3)c2)cc1` was 0.822 µM; that for `CCc1ccc(-c2cc(C)no2)cc1S(=O)(=O)NCCc1ccc(OC)c(OC)c1` was 7.43 µM.
With `Cc1sc(NC(=O)c2ccccc2)c(C(c2ccc(Cl)cc2)N2CCN(CCO)CC2)c1C` (stereo not drawn), the AC40 is 22.3 µM.
As to `Cc1ccc(NS(=O)(=O)c2cc3c4c(c2)CC(=O)N4CCC3)cc1C`, the AC40 is 2.61 µM.
The value for `O=C(NCC1CCCO1)C(c1cccs1)N(Cc1cccs1)C(=O)Cn1nnc(-c2cccs2)n1` (stereo not drawn) was 13.5 µM; that for `Cc1ccc(NS(=O)(=O)c2ccc(-c3cnc(C4CC4)o3)cc2)cc1` was 9.25 µM; that for `CCOc1ccc(Br)cc1S(=O)(=O)Nc1cccc(S(=O)(=O)N(CC)CC)c1` was 7.75 µM.
The value for `CCC1=Nc2cc(C(=O)NCc3ccco3)ccc2Sc2ccc(C)cc21` was 4.49 µM; that for `C[C@H](CO)N1C[C@H](C)[C@@H](CN(C)Cc2ccc(Oc3ccccc3)cc2)Oc2c(NC(=O)C3CCOCC3)cccc2C1=O` was 1.31 µM.
With `COc1ccc(NS(=O)(=O)c2c(C)cc(C)cc2C)cc1` the figure was 4.53 µM; with `COc1ccc(NC(C)=O)cc1S(=O)(=O)Nc1ccc(S(=O)(=O)N2CCCCC2)cc1`, 2.62 µM.
`C/C(CC(=O)Nc1ccccn1)=N\NC(=O)c1ccccc1O`: the AC40 was 2.59 µM.
The value for `CCOc1cc(C)c(S(=O)(=O)Nc2ccc(Cl)cn2)cc1C` was 4.04 µM; that for `C[C@H](CO)N1C[C@H](C)[C@H](CN(C)Cc2ccc(C(=O)Nc3ccccc3N)cc2)Oc2ccc(NC(=O)Nc3ccccc3)cc2CC1=O` was 5.91 µM.
With `Cc1ccc(S(=O)(=O)N/N=C/c2ccc(OCC(=O)Nc3ccccc3Cl)cc2)cc1`, the AC40 was 5.89 µM.
The value for `CCN(CC)c1ccc(S(=O)(=O)Nc2cc(Cl)ccc2Cl)cc1NC(=S)NC(=O)C1CCCC1` was 7.34 µM; that for `Cc1ccc(S(=O)(=O)NC(=NCc2ccccc2)c2ccc(F)cc2)cc1` was 5.08 µM.
With `CCCCOC(=O)NC1CCc2cc(OC)c(OC)c(OC)c2-c2ccc(SC)c(=O)cc21` (stereo not drawn) the figure was 0.863 µM; with `COCCNC(=O)c1ccc(C)c(S(=O)(=O)Nc2ccc(C)cc2)c1`, 6.38 µM.
The value for `COc1ccc(NC(=O)C(OC(=O)Cn2cnc3c2c(=O)n(C)c(=O)n3C)c2ccccc2)cc1Cl` (stereo not drawn) was 7.87 µM.
With `O=S(=O)(NCCc1ccccc1)c1cccc(S(=O)(=O)N2CCOCC2)c1`, the AC40 was 6 µM.
With `C[C@@H]1CN([C@@H](C)CO)C(=O)c2cccc(NC(=O)c3cnccn3)c2O[C@H]1CN(C)Cc1ccc(C(F)(F)F)cc1` the figure was 19.2 µM; with `Cc1cc(S(=O)(=O)NC2CCCCC2)c(C)s1`, 1.44 µM.
The value for `COc1ccc(NC(=O)CCC(=O)c2cccs2)cc1S(=O)(=O)Nc1ccc(Cl)cc1` was 0.884 µM; that for `COc1cccc(N2CCN(C(=O)c3oc4ccccc4c3NC(=O)CCc3cc(OC)no3)CC2)c1` was 1.31 µM.
The value for `O=C(Cc1ccccc1)N1C[C@H]2[C@@H](c3ccccc31)[C@@H](CO)N2C(=O)C1CCCCC1` was 6.07 µM; that for `CCOc1cc(C)c(C(C)C)cc1S(=O)(=O)n1ccc(C)n1` was 7.45 µM; that for `CCN1C(=O)c2cccc3c(S(=O)(=O)NCCc4c[nH]c5ccccc45)ccc1c23` was 3.09 µM.
Consider `COc1ccc(C)cc1S(=O)(=O)NC1CCCCCC1`, for which the AC40 is 2.03 µM.
With `COc1ccc(S(=O)(=O)Nc2ccc(C(F)(F)F)cc2)cc1OC` the figure was 2.12 µM; with `COc1ccc(S(=O)(=O)Nc2ccc(F)cc2)cc1N(C)S(=O)(=O)c1ccc(Cl)cc1`, 4.94 µM; with `Cc1ccc(C2CN(C)C3(C(=O)Nc4ccccc43)C23COc2ccccc2C3=O)cc1` (stereo not drawn), 1.08 µM.
The value for `COc1ccc(-c2c(O)c(C#N)c(-c3ccccc3)n(-c3ccc(OC)cc3)c2=O)cc1` was 20 µM.
With `COc1ccc(N(C(=O)c2ccco2)S(=O)(=O)c2cc(Cl)c(Cl)cc2Cl)cc1` the figure was 12.4 µM; with `Cc1ccc(S(=O)(=O)Nc2ccc3ccccc3c2)cc1`, 7.08 µM.
In the case of `Cc1ccc(S(=O)(=O)c2cccc(S(=O)(=O)N3CCCC3)c2)cc1S(=O)(=O)N1CCCC1`, the AC40 was 9.91 µM.
With `CC(=O)N1CCOc2ccc(S(=O)(=O)NCCc3cccc(C)c3)cc21` the figure was 4.01 µM.
With `CNC(=O)NC(=O)C(C)OC(=O)c1ccc(Cl)c(S(=O)(=O)Nc2ccc(F)cc2)c1` (stereo not drawn) the figure was 7.64 µM.
With `OC(c1ccc(F)cc1)c1ncc(-c2ccccc2F)[nH]1` (stereo not drawn) the figure was 5.16 µM.
Take `Cc1cc(C)cc(Cn2c3ccc(NC(=S)NCc4ccccc4F)cc3c(=O)n2C)c1`: the AC40 was 4.19 µM.
The value for `O=S(=O)(NC1CC2CCC1C2)c1ccc2c(c1)OCCO2` (stereo not drawn) was 3.87 µM; that for `NC(=O)Cn1cc(/C=N\NS(=O)(=O)c2ccc(Cl)cc2)c2ccccc21` was 3.75 µM.
With `Cc1cc(-c2ccc(C(C)C)c(S(=O)(=O)NCc3ccco3)c2)on1` the figure was 1.22 µM; with `O=S(Cc1ccc(Cl)cc1)CC(O)(c1ccccc1)c1ccccc1` (stereo not drawn), 18.1 µM; with `O=S(=O)(NCc1ccco1)c1ccc2ccccc2c1`, 2.62 µM.
The value for `CC(C)(C)NS(=O)(=O)c1ccc(NC(=S)NC(=O)C2CC2)cc1` was 1.86 µM.
